Patent publication US20240189287A1, “PERIPHERALLY RESTRICTED CB1 RECEPTOR BLOCKERS AND USES THEREOF” (BIONANOSIM (BNS) LTD, priority 2021, published 2024)
“Also recorded” adds a separate entry of the source.

What was measured:
CB1 receptor [1] = molecular target: CB1 receptor (Homo sapiens (Human), UniProt P21554); assay: CB1 receptor radioligand binding assay, membranes from human source
Procedure: (§1) Radioligand binding assays: Binding affinity was determined by a radioligand binding assay. The different BB8-conjugates binding to CB1 and CB2 receptors was assessed in competition displacement assays using [^3H]CP-55.940 as the radioligand and crude membranes from mouse brain for CB1 receptor and human kidney cells for CB2 receptor.
(§2) CB1 receptor binding assay: Mouse brain membranes were used as the source material for CB1 receptors. The displacement of specifically bound tritiated CP-55.940 from these membranes using a standard filtration assay was used to determine the Ki values for the test compounds. Briefly. 20 μg of protein was incubated for 1 h at 30° C. in the presence of 0.5 nM [^3H]CP-55,940 and various concentrations (10^−5M-10^−11M) of test compound/control, final volume of 1 mL. The incubation was terminated by rapid filtration and washing, and the amount of specifically bound [^3H]CP-55,940 was determined. Briefly, membranes with bound [^3H]CP-55,940 were separated and washed from free ligand by vacuum filtration, adsorbing the membrane onto a Whatman glass microfiber filter paper ([…], Cat #1821271). Finally, the Whatman filter paper with adsorbed membranes was cut and placed in scintillation liquid (Ultima Gold) for 1 h at 25° C. followed by a β counter reading of bound [^3H]CP-55,940 radioligand. All data were in triplicates with Ki values determined using GraphPad Prism 7.02 analysis software. […] In some cases, membranes from human source were used to determine CB1 receptor binding affinity.

CB1 receptor [2] = molecular target: T1, CB1 receptor (Mus musculus (Mouse), UniProt P47746); assay: [35S]GTPγS binding assay for CB1 receptor, mouse brain membranes; assay type: biochemical; conditions: nature of binding: agonist/antagonist/inverse agonist
Procedure: For CB1 receptor-mouse brains were dissected and P2 membranes prepared and resuspended at ˜2 μg protein/μL in 1 ml assay buffer (50 mM Tris HCl, 9 mM MgCl2, 0.2 mM EDTA, 150 mM NaCl; pH 7.4). Ligand-stimulated [^35S]GTPγS binding was assayed as described previously (Tam et al., JCI 2010). Briefly, membranes (10 μg protein) were incubated in assay buffer containing 100 μM GDP, 0.05 nM [^35S]GTPγS, test compounds at various concentrations (CP55940/Rimonabant as controls and test compounds for BB8 conjugates), and 1.4 mg/mL fatty acid-free BSA in siliconized glass tubes. Membranes with bound ligand ([^35S]GTPγS) were separated from free ligand by vacuum filtration and were analyzed using β counter as described above. Non-specific binding was determined using 10 μM GTPS (cold GTP). Basal binding was assayed in the absence of the tested compound and in the presence of GDP.

CB2 receptor = CB2 receptor (Homo sapiens (Human), UniProt P34972); assay: CB2 receptor radioligand binding assay, [3H]CP-55,940 displacement, human kidney membranes
Procedure: as §1
CB2 receptor binding assay: Human kidney membranes were used as the source material for CB2 receptors. The displacement of specifically bound tritiated CP-55,940 from these membranes using a standard filtration assay was used to determine the Ki values for the test compounds. Briefly, 1.25 μg of protein was incubated for 1.5 h at 30° C. in the presence of 0.5 nM [^3H]CP-55,940 and various concentrations (10^−5M-10^−11M) of test compound/control, final volume of 1 mL. The incubation was terminated by rapid filtration and washing, and the amount of specifically bound [^3H]CP-55,940 was determined. Briefly, membranes with bound [^3H]CP-55,940 were separated and washed from free ligand by vacuum filtration, adsorbing the membrane onto a Whatman glass microfiber filter paper ([…], Cat #1821271). Finally, the Whatman filter paper with adsorbed membranes was cut and placed in scintillation liquid (Ultima Gold) for 1 h at 25° C. followed by a β counter reading of bound [^3H]CP-55,940 radioligand. All data were in triplicates with Ki values determined using GraphPad Prism 7.02 analysis software.

mice [3] = assay: Elevated plus-maze, anxiety-related behavior; assay type: in vivo; conditions: single dose 20 mg/kg PO
Procedure: Elevated plus-maze: Anxiety-related behaviors were assessed using the EPM test as reported previously. Animals were placed on the 5×5 cm central platform of an apparatus from which four arms, 30 cm×5 cm extended. Two of the arms (the closed arms) are enclosed within 15 cm high walls, and the two other arms (the open arms) have 1 cm high rims. The whole maze is elevated 75 cm above the ground. During the 6 min test time, the number of entries to each arm type (closed or open arms, frequencies) and the time spent in each type of arm (closed or open arms, duration) during the test were measured.

[4] = Pharmacokinetics after oral and IV dosing; assay type: in vivo, C57BL/6J mice; conditions: for Cmax: male, C57BL/6J, po
Procedure: Pharmacokinetics: Male C57BL/6J mice (7-9 weeks, N=3 in each group) were used in this study. Mice were fasted at least 12 hr prior to administration of test article and have access to food ad libitum 4 hr post dosing. Appropriate amount of test article was accurately weighted and mixed with the appropriate volume of vehicle to get a clear oral solution. The formulations were prepared on the day of dosing, and mice were dosed via either orally gavage or intravenous injection, up to 4 hr after formulations were prepared. About 30 μL blood per time point was collected from the saphenous vein followed by plasma preparation. Dose formulation and sample analysis was performed by LC-MS/MS method. Plasma concentration versus time data was analyzed by non-compartmental method.

CB1 receptor [5] = molecular target: T1, CB1 receptor; assay: CB1 receptor radioligand binding assay, [3H]CP-55,940 displacement, mouse brain membranes
Procedure: as §1, §2

mice [6] = assay: Catalepsy test (bar test), WIN55,212-induced; assay type: in vivo; conditions: single dose 20 mg/kg PO 30 min prior to WIN55,212 3 mg/kg IP
Procedure: Catalepsy test: Catalepsy was assayed using the bar test. Briefly, mice were removed from their home cage, and their forepaws were placed on a horizontal bar, 0.5 cm in diameter, positioned 4 cm above the bench surface. Vehicle-treated mice routinely let go of the bar within 2 sec. Cataleptic behavior was defined as the time the animals remained motionless holding on to the bar, with an arbitrary cutoff of 30 sec. The antagonists were given 30 min before the IP injection of 3 mg/kg WIN55,212. The test was performed 60 min after agonist administration.

[7] = mouse, plasma, oral administration of 10 and 20 mg/kg, C57BL/6J male mice

T1 sequence (P47746 whole entry): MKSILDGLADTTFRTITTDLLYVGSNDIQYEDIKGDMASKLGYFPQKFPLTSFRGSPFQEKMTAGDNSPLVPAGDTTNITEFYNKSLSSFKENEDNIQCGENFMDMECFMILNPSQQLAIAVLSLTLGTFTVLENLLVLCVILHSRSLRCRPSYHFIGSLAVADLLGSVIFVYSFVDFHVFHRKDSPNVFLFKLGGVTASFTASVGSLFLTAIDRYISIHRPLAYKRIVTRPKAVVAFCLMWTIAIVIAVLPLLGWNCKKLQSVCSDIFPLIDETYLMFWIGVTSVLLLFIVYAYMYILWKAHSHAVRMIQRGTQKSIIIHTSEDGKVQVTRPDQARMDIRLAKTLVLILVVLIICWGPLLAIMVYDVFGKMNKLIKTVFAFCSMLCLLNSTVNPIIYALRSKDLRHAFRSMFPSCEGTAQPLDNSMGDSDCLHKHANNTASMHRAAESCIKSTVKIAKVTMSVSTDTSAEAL
Chain of CB2 receptor (P34972 whole entry): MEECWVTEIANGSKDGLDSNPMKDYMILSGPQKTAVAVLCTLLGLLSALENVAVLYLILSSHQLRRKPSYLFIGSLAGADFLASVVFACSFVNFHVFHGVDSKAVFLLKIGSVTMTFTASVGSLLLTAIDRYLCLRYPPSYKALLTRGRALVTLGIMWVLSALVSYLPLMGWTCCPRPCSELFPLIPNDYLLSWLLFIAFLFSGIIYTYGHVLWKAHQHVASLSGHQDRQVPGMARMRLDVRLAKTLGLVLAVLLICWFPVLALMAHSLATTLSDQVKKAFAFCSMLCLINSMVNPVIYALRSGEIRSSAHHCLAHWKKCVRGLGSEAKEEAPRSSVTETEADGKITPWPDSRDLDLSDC
Chain of CB1 receptor (Homo sapiens (Human), UniProt P21554) (P21554 whole entry): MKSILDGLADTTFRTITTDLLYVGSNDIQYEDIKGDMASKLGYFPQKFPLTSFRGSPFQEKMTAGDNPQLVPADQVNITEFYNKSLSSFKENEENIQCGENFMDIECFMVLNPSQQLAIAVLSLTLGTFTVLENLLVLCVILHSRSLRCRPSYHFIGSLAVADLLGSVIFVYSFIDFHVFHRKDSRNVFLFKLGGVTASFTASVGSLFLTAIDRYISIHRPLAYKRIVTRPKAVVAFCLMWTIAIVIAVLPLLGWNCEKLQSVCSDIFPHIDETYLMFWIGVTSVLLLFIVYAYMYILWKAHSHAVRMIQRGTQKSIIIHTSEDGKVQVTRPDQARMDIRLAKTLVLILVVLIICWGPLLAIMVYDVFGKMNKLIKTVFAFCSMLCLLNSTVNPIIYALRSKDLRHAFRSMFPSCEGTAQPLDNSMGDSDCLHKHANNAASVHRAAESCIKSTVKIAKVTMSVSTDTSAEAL

Row | SMILES | Ki (CB1 receptor [1]) | mCB1R GTPγ[^35S] (activity) (CB1 receptor [2]) | hCB2R Ki (nM) (CB2 receptor) | anxiogenic behavior in the Elevated Plus Maze (mice [3]) | Oral bioavail (%) ([4]; absolute, oral 10 and 20 mg/kg vs IV 1 mg/kg, C57BL/6J male mice) | Cmax ([4]; mouse, plasma, 10 mg/kg, oral 10 mg/kg, mice) | Cmax ([4]; mouse, plasma, 20 mg/kg, oral 20 mg/kg, mice) | Cmax ([4]; mouse, plasma, 20 mg/kg, oral administration of 10 and 20 mg/kg (range over both doses), C57BL/6J male mice) | Tmax [4, 7] | half-life [4, 7] | T1/2 ([4]; oral administration of 10 and 20 mg/kg, C57BL/6J male mice) | affinity / potency against the CB1 receptor (in words) (CB1 receptor [5]; CB1 receptor (mouse/human)) | Ki (CB1 receptor [5]; mouse (m) CB1 receptor, read-out: CB1R Ki (nM) (m)) | WIN55,212-induced catalepsy (mice [6])
1 | O=S(=O)(NC1CCCOc2c1nn(-c1ccccc1Cl)c2-c1ccc(Cl)cc1)c1ccc(Cl)cc1 (centres unmarked) [BNS808, 4-chloro-N-[2-(2-chlorophenyl)-3-(4-chlorophenyl)-5,6,7,8-tetrahydrooxepino[3,2-c]pyrazol-8-yl]benzenesulfonamide] | 0.7 nM |  |  |  |  |  |  |  |  |  |  |  |  | 
2 | Cc1ccc(C)c(OCCCC(C)(C)C(=O)NC2CCCOc3c2nn(-c2ccccc2Cl)c3-c2ccc(Cl)cc2)c1 (centres unmarked) [BNS822, N-[2-(2-chlorophenyl)-3-(4-chlorophenyl)-5,6,7,8-tetrahydrooxepino[3,2-c]pyrazol-8-yl]-5-(2,5-dimethylphenoxy)-2,2-dimethyl-pentanamide] |  | Antagonist | No binding | nor did it induce a robust anxiogenic response; also recorded: no anxiogenic effect | 8.62-10.59% | 283 ng/mL | 811 ng/mL | 283 to 811 ng/mL | 2 h | 312 min | 5.2 h | high potency | 1.4 nM | did not block; also recorded: no effect
